In the supplement of paper PMC12076712:

Target: UniProt P19784
Test: pIC50, competition of probe 3 labelling in live cells
Conditions: cell material: Jurkat cells

pIC50: < 4.52
Compound: CCc1cnn2c(NCc3ccc[n+]([O-])c3)cc(N3CCCC[C@H]3CCO)nc12 [dinaciclib]
